Measurements from patent publication US6617337B1, “Use of nitroxides for the treatment of essential hypertension” (Georgetown University, priority 1997, dated 2003).

What was measured:
Format in all cases: in vivo, rat
SHR = assay: Role of NO in the MAP response to constant Tempol infusion (L-NAME or norepinephrine pretreatment)
SHR and WKY rats [1] = assay: MAP and renal hemodynamics during bolus intravenous injection of Tempol in anesthetized rats; settings: for Decrease in MAP: Tempol 72 μmol/kg IV; for RBF during Tempol: dose not specified (24 and 72 μmol/kg studied)
Method: In the first group, the short-term actions of Tempol were determined in anesthetized rats. […] The following data was obtained:
Materials and Methods. In Examples 3 to 6, groups of male SHR and WKY rats (200 to 300 g) were maintained on tap water and standard chow (Harlan-Teklad Inc.). […] In order to do this experiment, WKY (n=6) and SHR (n=6) were anesthetized with thiobutabarbital (100 mg/kg i.p., Inactin, Research Biochemicals International) and maintained at 37° C. on a servocontrolled heated rodent operating table. A tracheostomy was performed with polyethylene PE-240 tubing, and the left jugular vein and carotid artery were cannulated with PE-50 tubing. Intravenous infusion of 1% albumin dissolved in 0.154 M NaCl solution was infused at 2 mL/h i.v. to maintain an euvolemic state. A midline incision was made, and the left renal artery was isolated. A blood-flow probe was placed around the renal artery and connected to a transit-time blood flowmeter (1RB, Transonic Systems Inc.). We have previously shown that this method of measuring real-time changes in RBF is valid in the rat (Welch et al., 1995 Am. J. Physiol. 37: F175-F178).
MAP was continuously recorded from the carotid artery using a Statham pressure transducer (model P23, Gould Instruments) and MACLab data acquisition program. After 60 minutes of equilibration, there was a basal period for measurement of MAP and RBF over 30 minutes.

SHR and WKY rats [2] = assay: Maximal TGF responses during retrograde microperfusion of Tempol into the macula densa/JGA (Series 6); settings: for Percentage reduction in TGF normalized to the initial response: Tempol 10^−3 M retrograde; for PSF difference 0-40 nl·min^−1 (maximal TGF response) / PSF during LH perfusion at 0 nl·min^−1 / PSF during LH perfusion at 40 nl·min^−1: retrograde perfusion, ATF+Tempol 10^−3 M, mean ± SEM
Method: Series 4. Effects of inhibition of bNOS on maximal TGF responses in SHR and WKY. These experiments further examined the SHR hypertension model and whether the enhanced TGF of the SHR kidney is due to a blunted generation of NO by bNOS in the macula densa or whether NOS inhibition is diminished in the SHR model. Groups of SHR and age-matched WKY rats were prepared for in vivo micropuncture, microperfusion, and TGF studies as described in detail previously. In brief, animals were anesthetized with thiobarbital (Inactin, 100 mg·kg^−1; Research Biochemicals, Inc., Natick, Mass.). A catheter was placed in a jugular vein for fluid infusion and in a femoral artery for recording of mean arterial pressure (MAP) from the electrically damped output of a pressure transducer (Statham, Inc.). A tracheotomy tube was inserted and the animals were allowed to breathe spontaneously. The left kidney was exposed by a flank incision, cleaned of connective tissue, and stabilized in a Lucite cup. This kidney was bathed in 0.154 M NaCl maintained at 37° C. After completion of surgery, rats were infused with a solution of 0.154 M NaCl and 1% albumin at 1.5 ml·h^−1 to maintain a euvolemic state. Micropuncture studies were begun after 60 min for stabilization.
For orthograde microperfusion of the loop of Henle (LH), a micropipette (8 μm OD) containing artificial tubular fluid (ATF) stained with FD&C dye was inserted into a late proximal tubule. Injections of the colored ATF identified the nephron and the direction of flow. An immobile bone wax block was inserted into this micropuncture site via a micropipette (10-15 μm) and connected to a hydraulic drive (Trent Wells, Inc., LaJolla, Calif.) to halt tubular fluid flow. A perfusion micropipette (6-8 μm) containing ATF and test compounds or vehicle was inserted into the proximal tubule downstream from the wax block and connected to a nanoliter perfusion pump (WPI, Sarasota, Fla.). A pressure micropipette (1-2 μm) was inserted into the proximal tubule upstream from the wax block to measure proximal stop flow pressure (PSF). Changes in PSF are an index of changes in glomerular capillary hydraulic pressure (PGC). Measurements of PSF were made in each nephron during zero loop perfusion and during perfusion with ATF at 40 nl·min^−1, which produces a maximal TGF response, defined as the difference between PSF values recorded during perfusion of the loop with ATF at 0 and 40 nl·min^−1.
Groups of SHR (n=5) and WKY rats (n=5) were prepared for studies of retrograde microperfusion into the macula densa. […] Therefore, these studies of TGF were conducted with retrograde microperfusion from the early distal (ED) tubule into the macula densa. After identifying the nephron with FD&C green, the last proximal convolution was vented and a wax block placed upstream. A micropipette (8-10 μm OD) was inserted into the ED tubule upstream from an oil droplet. The loop of Henle was perfused retrogradely with perfusate entering the macula densa segment directly at 0 and 20 nl·min^−1. This represents a maximal activation for TGF by retrograde perfusion. […] Therefore, this dose was used thereafter in the test animals (Dosage/kg would usually be lower in larger animals). Comparisons were made of maximum TGF responses obtained during perfusion of ATF+vehicle (ethanol) and ATF+Tempol.

SHR and WKY rats [3] = assay: MAP after 7 days of intraperitoneal Tempol; settings: Tempol 250 mg/kg/day intraperitoneally for 7 days
SHR and WKY rats [4] = assay: MAP during constant intravenous infusion of Tempol in anesthetized rats (dose-response); settings: Tempol 1,800 μmol·kg^−1·h^−1 i.v. infusion, 30 minutes
[5] = SHR, Tempol 4 mg/kg intravenously
[6] = WKY, Tempol 4 mg/kg intravenously

## CC1(C)CC(O)CC(C)(C)N1[O] [Tempol, 4-hydroxy-2,2,6,6-tetramethyl-1-piperidinyloxy]
SHR; SHR infused with norepinephrine, Tempol infusion
  Decrease in MAP: 14%
SHR; SHR infused with norepinephrine, Tempol infusion, P<0.05
  MAP during Tempol infusion: 161±7 mm Hg
SHR; SHR pretreated with L-NAME, Tempol infusion 30 minutes, unchanged
  MAP during Tempol infusion: 186±4 mm Hg
SHR; SHR, saline vehicle pretreatment, Tempol infusion 180 μmol·kg^−1·min^−1 (so in the source) for 30 minutes
  MAP: 121±17 mm Hg
SHR; SHR, saline vehicle pretreatment, Tempol infusion for 30 minutes, P<0.05
  Decrease in MAP: 32%
SHR and WKY rats [1]; SHR, Tempol 24 μmol/kg IV bolus
  MAP: 147±4 mm Hg
SHR and WKY rats [1]; SHR, Tempol 72 μmol/kg
  RVR: 17±2 mm Hg·mL^−1·min^−1
SHR and WKY rats [1]; SHR, Tempol 72 μmol/kg IV bolus
  MAP: 104±9 mm Hg
SHR and WKY rats [1]; SHR, P<0.05
  Decrease in MAP: 28%
SHR and WKY rats [1]; SHR, Tempol 72 μmol/kg, P<0.05
  Decrease in RVR: 29%
SHR and WKY rats [1]; [5]
  MAP: 108±8 mm Hg
  RVR: 17±2 mm Hg/ml/min
SHR and WKY rats [1]; SHR, Tempol 12 mg/kg intravenously
  MAP: 80±5 mm Hg
SHR and WKY rats [1]; SHR
  RBF during Tempol: 6.7 ± 0.8 mL/min
SHR and WKY rats [1]; SHR, low-dose Tempol (24 μmol/kg)
  RVR: 24±3 mm Hg·mL^−1·min^−1
SHR and WKY rats [1]; WKY, Tempol 24 μmol/kg IV bolus
  MAP: 114±5 mm Hg
SHR and WKY rats [1]; WKY, Tempol 72 μmol/kg
  RVR: 15±1 mm Hg·mL^−1·min^−1
SHR and WKY rats [1]; WKY, Tempol 72 μmol/kg IV bolus
  MAP: 96±6 mm Hg
SHR and WKY rats [1]; WKY, P<0.05
  Decrease in MAP: 11%
SHR and WKY rats [1]; [6]
  MAP: 98±6 mm Hg
  RVR: 15±1 mm Hg/ml/min
SHR and WKY rats [1]; WKY, Tempol 12 mg/kg intravenously
  MAP: 99±7 mm Hg
SHR and WKY rats [1]; WKY
  RBF during Tempol: 6.6 ± 0.7 mL/min
SHR and WKY rats [1]; WKY, low-dose Tempol (24 μmol/kg)
  RVR: 17±1 mm Hg·mL^−1·min^−1
SHR and WKY rats [2]; SHR
  Percentage reduction in TGF normalized to the initial response: −26±2%
  PSF difference 0-40 nl·min^−1 (maximal TGF response): 8.5 ± 0.8 mm Hg
  PSF during LH perfusion at 0 nl·min^−1: 40.8 ± 0.8 mm Hg
  PSF during LH perfusion at 40 nl·min^−1: 32.1 ± 0.9 mm Hg
SHR and WKY rats [2]; WKY
  Percentage reduction in TGF normalized to the initial response: −17±3%
  PSF difference 0-40 nl·min^−1 (maximal TGF response): 6.7 ± 0.4 mm Hg
  PSF during LH perfusion at 0 nl·min^−1: 34.7 ± 0.8 mm Hg
  PSF during LH perfusion at 40 nl·min^−1: 28.0 ± 0.9 mm Hg
SHR and WKY rats [2]; retrograde microperfusion into the macula densa
  Maximally effective dose (preliminary studies, effects reversible): 10^−3 M
SHR and WKY rats [3]; SHR, from 133±2, p<0.01
  MAP after treatment: 120±3 mm Hg
SHR and WKY rats [3]; WKY
  Effect on MAP: no effect
SHR and WKY rats [4]; SHR
  MAP: 72±10 mm Hg
SHR and WKY rats [4]; WKY
  MAP: 71±3 mm Hg
